Experiments:
S. aureus ATCC 13709 = assay: MIC, NCCLS broth microdilution; assay type: cell-based, Staphylococcus aureus; conditions: A = S. aureus ATCC 13709 (MSSA)
Outline: (§1)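 Compounds were serially diluted in broth and tested against each strain according to NCCLS guidelines, with MIC taken as the endpoint. C. albicans was assayed per the Manual of Clinical Microbiology.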

S. aureus ATCC 27660 = assay: MIC, NCCLS broth microdilution; assay type: cell-based, Staphylococcus aureus; conditions: B = S. aureus ATCC 27660 (MRSA)
Outline: as §1

E. faecalis ATCC 29212 = assay: MIC, NCCLS broth microdilution; assay type: cell-based, Enterococcus faecalis; conditions: C = E. faecalis ATCC 29212
Outline: (§2)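 Minimal inhibitory concentration determined by NCCLS broth microdilution in microtiter plates per documents M7-A4, M11-A4 and M27-T. S. aureus ATCC 27660 is a methicillin-resistant strain. The antifungal test on C. albicans followed the method recommended in the Manual of Clinical Microbiology (1995).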

B. cereus ATCC 11778 = assay: MIC, NCCLS broth microdilution; assay type: cell-based, Bacillus cereus; conditions: D = B. cereus ATCC 11778
Outline: as §1

S. pneumoniae ATCC 49619 = assay: MIC, NCCLS broth microdilution; assay type: cell-based, Streptococcus pneumoniae; conditions: E = S. pneumoniae ATCC 49619
Outline: as §2

C. albicans ATCC 38247 = assay: MIC, antifungal assay; assay type: cell-based, Candida albicans; conditions: F = C. albicans ATCC 38247
Outline: as §1

E. coli ATCC 25922 = assay: MIC, NCCLS broth microdilution; assay type: cell-based, Escherichia coli; conditions: G = E. coli ATCC 25922
Outline: as §2

[1] = test system: M. catarrhalis (ATCC 25238); assay: MIC, NCCLS broth microdilution; assay type: cell-based, Moraxella (now Branhamella) catarrhalis; conditions: H = M. catarrhalis (ATCC 25238)
Outline: as §1

Measured: Minimum Inhibitory Concentration (MIC)

Cn1cc(NC(=O)c2cc3ccccc3cn2)cc1C(=O)Nc1ccc(C(=O)Nc2cn(C)c(C(=O)NCCNC(CO)CO)n2)cc1 [Compound A-50]
+ (12 ≦ MIC ≦ 32 μg/mL): B. cereus ATCC 11778
++ (4 < MIC < 12 μg/mL): E. faecalis ATCC 29212
>32 µg/mL: C. albicans ATCC 38247 | E. coli ATCC 25922 | [1]
+++ (MIC ≦ 4 μg/mL): all other assays above

C[C@@H]1CN(CCNC(=O)c2nc(NC(=O)c3ccc(NC(=O)c4cc(NC(=O)c5cc6ccccc6cn5)cn4C)cc3)cn2C)C[C@H](C)O1 [Compound A-51]
>32 µg/mL: C. albicans ATCC 38247 | E. coli ATCC 25922
+++ (MIC ≦ 4 μg/mL): all other assays above

CC(C)N1CCN(CCC(=O)OC2CCN(CCNC(=O)c3nc(NC(=O)c4ccc(NC(=O)c5cc(NC(=O)c6cc7ccccc7cn6)cn5C)cc4)cn3C)CC2)CC1 [Compound A-53]
>32 µg/mL: C. albicans ATCC 38247 | E. coli ATCC 25922
+++ (MIC ≦ 4 μg/mL): all other assays above

Cn1cc(NC(=O)c2cc3ccccc3cn2)cc1C(=O)Nc1ccc(C(=O)Nc2cn(C)c(C(=O)NCCN(CCO)CCO)n2)cc1 [Compound A-54]
>32 µg/mL: C. albicans ATCC 38247 | E. coli ATCC 25922 | [1]
+++ (MIC ≦ 4 μg/mL): all other assays above

Cn1cc(NC(=O)c2cc3ccccc3cn2)cc1C(=O)Nc1ccc(C(=O)Nc2cn(C)c(C(=O)NCCN3CCN(C(=O)OC(C)(C)C)CC3)n2)cc1 [Compound A-55]
>32 µg/mL: C. albicans ATCC 38247 | E. coli ATCC 25922
+ (12 ≦ MIC ≦ 32 μg/mL): [1]
+++ (MIC ≦ 4 μg/mL): all other assays above

Cn1cc(NC(=O)c2cc3ccccc3cn2)cc1C(=O)Nc1ccc(C(=O)Nc2cn(C)c(C(=O)NCCN3CCN(S(C)(=O)=O)CC3)n2)cc1 [Compound A-56]
>32 µg/mL: C. albicans ATCC 38247 | E. coli ATCC 25922
+++ (MIC ≦ 4 μg/mL): all other assays above

Cn1cc(NC(=O)c2cc3ccccc3cn2)cc1C(=O)Nc1ccc(C(=O)Nc2cn(C)c(C(=O)NCCN3CCC(OC(=O)CCN(CCO)CCO)CC3)n2)cc1 [Compound A-57]
>32 µg/mL: C. albicans ATCC 38247
++ (4 < MIC < 12 μg/mL): E. coli ATCC 25922
+++ (MIC ≦ 4 μg/mL): all other assays above

Cn1cc(NC(=O)c2cc3ccccc3cn2)cc1C(=O)Nc1ccc(C(=O)Nc2cn(C)c(C(=O)NCCN3CCN(CC#N)CC3)n2)cc1 [Compound A-58]
>32 µg/mL: C. albicans ATCC 38247 | E. coli ATCC 25922
+++ (MIC ≦ 4 μg/mL): all other assays above

Cn1cc(NC(=O)c2cc3ccccc3cn2)cc1C(=O)Nc1ccc(C(=O)Nc2cn(C)c(C(=O)NCCN3CCC(OC(=O)CCN4CCOCC4)CC3)n2)cc1 [Compound A-59]
>32 µg/mL: C. albicans ATCC 38247 | E. coli ATCC 25922
+++ (MIC ≦ 4 μg/mL): all other assays above

Cn1cc(NC(=O)c2cc3ccccc3cn2)cc1C(=O)Nc1ccc(C(=O)Nc2cn(C)c(C(=O)NCCN3CCC(OC(=O)CCN)CC3)n2)cc1 [Compound A-60]
++ (4 < MIC < 12 μg/mL): C. albicans ATCC 38247 | [1]
>32 µg/mL: E. coli ATCC 25922
+++ (MIC ≦ 4 μg/mL): all other assays above

Cn1cc(NC(=O)c2cc3ccccc3cn2)cc1C(=O)Nc1ccc(C(=O)Nc2cn(C)c(C(=O)NCCN3CCN(CCOC(=O)CNC(=O)OC(C)(C)C)CC3)n2)cc1 [Compound A-61]
>32 µg/mL: C. albicans ATCC 38247 | E. coli ATCC 25922
+++ (MIC ≦ 4 μg/mL): all other assays above

Cn1cc(NC(=O)c2cc3ccccc3cn2)cc1C(=O)Nc1ccc(C(=O)Nc2cn(C)c(C(=O)NCCN3CCN(CCOC(=O)CN)CC3)n2)cc1 [Compound A-62]
>32 µg/mL: C. albicans ATCC 38247 | E. coli ATCC 25922
+++ (MIC ≦ 4 μg/mL): all other assays above

CC(O)CN1CCN(CCNC(=O)c2nc(NC(=O)c3ccc(NC(=O)c4cc(NC(=O)c5cc6ccccc6cn5)cn4C)cc3)cn2C)CC1 (centres unmarked) [Compound A-63]
>32 µg/mL: C. albicans ATCC 38247
+++ (MIC ≦ 4 μg/mL): all other assays above

Reference: patent US7642245B2, “Antibacterial compounds having a (pyrrole carboxamide)-(benzamide)-(imidazole carboxamide) motif” (Oscient Pharmaceuticals Corporation, priority 2002, dated 2010)
